Values quoted from earlier work in patent US20170003257A1, “WETNESS INDICATOR WITH TWO COLORANTS AND TWO STABILIZERS” (The Procter & Gamble Company, priority 2015, published 2017).
Like-named read-outs stand apart in the source and are kept apart here.

How the values were obtained:
[1] = Table 2 stabilizers; for pKa (1): first pKa; for pKa (2): second pKa; for pKa (3): third pKa

Compound	pKa (1) [1]	pKa (2) [1]	further results
O=c1[nH]c(=O)c2[nH]c(=O)[nH]c2[nH]1 [Uric acid]	3.9	–	–
CC(C)CCC(=O)O [4-Methylpentanoic acid]	4.8	–	–
CCCCCCCN [Heptylamine]	10.7	–	–
O=CC(=O)O [Glyoxylic acid]	3.2	–	–
CC(=NO)C(C)=NO [Dimethylglyoxime]	10.7	12.0	–
NCCCCCCN [Hexamethylenediamine]	11.9	10.8	–
N=C(N)NCCC[C@H](N)C(=O)O [Arginine]	1.8	–	–
Oc1ccccc1O [Catechol]	9.4	12.8	–
N[C@@H](CO)C(=O)O [Serine]	–	9.0	–
N[C@@H](Cc1ccccc1)C(=O)O [Phenylalanine]	–	9.3	–
OB(O)O [Boric acid]	9.3	12.7	pKa (3) [1]: 13.8
CCCCCCCCCCN [Decylamine]	10.6	–	–
O=C(O)CN(CCN(CC(=O)O)CC(=O)O)CC(=O)O [Ethylenediaminetetraacetic acid (EDTA), Ethylenediaminetetraacetic acid]	−0.21	1.5	pKa (5) ([1]; fifth pKa): 6.7; pKa (4) ([1]; fourth pKa): 3.1; pKa (3) [1]: 2.2
Oc1ccccc1O [Pyrocatechol]	9.4	12.8	–
O=C(O)C(O)CO (stereo not shown) [Glyceric acid]	3.5	–	–
Oc1cccc(O)c1 [Resorcinol]	9.3	11.1	–
O=C(O)CCCCCC(=O)O [Heptanedioic acid]	4.7	–	–
CC[N+](CC)=c1ccc2nc3c(cc(N)c4ccccc43)oc-2c1 [Nile Blue]	–	–	pKa (Table 1 colorants): 9.7

Compound	pKa (1) [1]	pKa (2) [1]	further results
CCCCCCN [Hexylamine]	10.6	–	–
O=C(O)c1ccncc1 [4-Pyridinecarboxylic acid]	5.0	–	–
NCCc1ccc(O)cc1 [Tyramine]	9.8	10.5	–
O=C1O[C@H]([C@@H](O)CO)C(O)=C1O [Ascorbic acid]	–	11.8	–
CC(=O)CC(=O)O [Acetoacetic acid]	3.6	–	–
C[N+](C)(C)CC(=O)O [Betaine]	1.83	–	–
O=c1ccc2[n+]([O-])c3ccc(O)cc3oc-2c1 [Resazurin]	–	–	pKa (Table 1 colorants): 5.1
Cc1ccccc1C(=O)O [o-Toluic acid]	3.9	–	–
NCCN [Ethylenediamine]	6.8	–	–
O=S(O)O [Sulfurous acid]	–	7.2	–
Cc1ccc(C(=O)O)cc1 [p-Toluic acid]	4.4	–	–
Oc1ccc(O)cc1 [Hydroquinone]	10.3	–	–
CN(C)c1ccc(C(=C2C=CC(=[N+](C)C)C=C2)c2ccccc2)cc1 [Malachite Green]	–	–	pKa (Alkaline pH range): 12.8
NC(C(=O)O)c1ccccc1 (stereo not shown) [Phenylglycine]	1.8	4.4	–
O=C(O)c1cncc(C(=O)O)c1 [Dinicotinic acid]	2.8	–	–
O=C(O)c1ccccn1 [Picolinic acid]	1.1	5.2	–
Cc1cc(O)c(C(C)C)cc1C1(c2cc(C(C)C)c(O)cc2C)OC(=O)c2ccccc21 [Thymolphthalein]	–	–	pKa (Table 1 colorants): 9.8
